According to US20130012519A1, “Biomarker Identifying the Reactivation of STAT3 After Src Inhibition” (BRISTOL-MYERS SQUIBB COMPANY, priority 2006, published 2013):
pIC50: −log10 of the molar value. Entries after “also recorded” stand apart in the source; their conditions may differ.

Key:
wild-type BCR-ABL = conditions: read-out: IC50 against wild-type BCR-ABL; Weisberg et al. 2006; cited from earlier work
[1] = system: imatinib-resistant BCR-ABL mutants; conditions: number of mutants out of those tested; Weisberg et al. 2006; cited from earlier work
STAT3 [2] = experiment: Western blot / Bioplex phosphoprotein assay, STAT3 activation (pY705-STAT3) in cancer cell lines; conditions: for STAT3 inhibition / re-activation: Tu167 cells treated with one of three SFK inhibitors for 24 hours; for STAT3 inhibition on addition of JAK inhibitor to dasatinib: JAK inhibitor added to dasatinib; for effect of added inhibitor on STAT3 reactivation by dasatinib: Tu167 cells treated with dasatinib plus the inhibitor
Protocol: Quantitative Bioplex Phosphoprotein Assay. […] Protein lysates were prepared by using cell lysis buffer with PMSF (Bio-Rad laboratories, Life Science Research Group, Hercules, Calif., USA) on samples collected. Phosphorylated proteins were detected by Bio-Rad phosphoprotein immunoassay kit using Bio-Plex 100 system with workstation (Bio-Rad) according to the manufacturer's protocol. The targeted phosphorylated proteins included the following: Akt (Ser473), ERK-1/2 (Thr202/Tyr204) and STAT3 (Tyr705). Briefly, 50 nl of cell lysate (adjusted to a concentration of 200-900 μg/ml of protein) was plated in the 96 well filter plate coated with anti-phospho-protein antibodies coupled beads and allowed to incubate overnight (16 hours) on a platform shaker at 300 rpm at room temperature. After vacuum-filter and washing the wells; 1 microliter of detection antibodies (25×) were added, vortexed and then incubated for 30 minutes. […] Data acquisition and analysis was completed by using Bio-Plex manager (V4.1.1. software).

c-Src = biological target: T1, c-Src (Homo sapiens, UniProt P12931); experiment: Western blot, c-Src inhibition in cancer cell lines; type: cell-based; conditions: Tu167 cells treated with one of three SFK inhibitors for 24 hours
T1 construct: endogenous in cells; host or cells: fifteen human cancer cell lines (HNSCC incl. Tu167, NSCLC, mesothelioma, squamous skin cancer)
T1 sequence (P12931 whole entry): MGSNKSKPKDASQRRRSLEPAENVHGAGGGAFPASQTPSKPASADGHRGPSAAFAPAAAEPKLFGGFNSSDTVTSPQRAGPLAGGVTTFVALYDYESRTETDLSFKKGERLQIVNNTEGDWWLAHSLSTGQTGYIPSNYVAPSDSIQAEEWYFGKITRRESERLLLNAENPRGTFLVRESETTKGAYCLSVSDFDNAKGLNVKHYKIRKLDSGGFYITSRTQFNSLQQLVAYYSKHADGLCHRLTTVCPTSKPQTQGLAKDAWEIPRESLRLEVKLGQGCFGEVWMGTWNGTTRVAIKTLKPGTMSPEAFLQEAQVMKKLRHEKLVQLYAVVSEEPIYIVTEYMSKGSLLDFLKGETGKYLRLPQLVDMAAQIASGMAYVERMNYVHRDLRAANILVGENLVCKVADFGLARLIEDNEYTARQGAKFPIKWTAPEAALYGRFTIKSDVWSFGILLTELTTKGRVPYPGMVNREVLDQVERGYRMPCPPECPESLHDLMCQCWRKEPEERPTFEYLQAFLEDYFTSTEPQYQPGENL

STAT3 [3] = conditions: panel of NSCLC cell lines with mutant or wild-type EGFR; literature; cited from earlier work
IL-6 = experiment: Cytokine profiling of cell media (25-plex bead kit), IL-6; type: cell-based, human; conditions: 100 nM dasatinib; serum-free and complete medium; 6 and 24 h
[4] = system: head and neck squamous carcinoma and non-small cell lung cancer cell lines; conditions: cited from earlier work
AKT = experiment: Western blot, AKT downstream of Src in cancer cell lines; type: cell-based, human
STAT5 = experiment: Western blot, STAT5 downstream of Src in cancer cell lines; type: cell-based, human
[5] = system: 25 human cytokines/chemokines; experiment: Cytokine profiling of cell media (25-plex bead kit), other cytokines; type: cell-based; conditions: 100 nM dasatinib; serum-free and complete medium; 6 and 24 h
IGF1R = biological target: T2, IGF1R (Homo sapiens, UniProt P08069); experiment: IGF1R activation in cells; type: cell-based; conditions: cells treated with dasatinib
T2 construct: endogenous in cells
T2 sequence (P08069 31-1367): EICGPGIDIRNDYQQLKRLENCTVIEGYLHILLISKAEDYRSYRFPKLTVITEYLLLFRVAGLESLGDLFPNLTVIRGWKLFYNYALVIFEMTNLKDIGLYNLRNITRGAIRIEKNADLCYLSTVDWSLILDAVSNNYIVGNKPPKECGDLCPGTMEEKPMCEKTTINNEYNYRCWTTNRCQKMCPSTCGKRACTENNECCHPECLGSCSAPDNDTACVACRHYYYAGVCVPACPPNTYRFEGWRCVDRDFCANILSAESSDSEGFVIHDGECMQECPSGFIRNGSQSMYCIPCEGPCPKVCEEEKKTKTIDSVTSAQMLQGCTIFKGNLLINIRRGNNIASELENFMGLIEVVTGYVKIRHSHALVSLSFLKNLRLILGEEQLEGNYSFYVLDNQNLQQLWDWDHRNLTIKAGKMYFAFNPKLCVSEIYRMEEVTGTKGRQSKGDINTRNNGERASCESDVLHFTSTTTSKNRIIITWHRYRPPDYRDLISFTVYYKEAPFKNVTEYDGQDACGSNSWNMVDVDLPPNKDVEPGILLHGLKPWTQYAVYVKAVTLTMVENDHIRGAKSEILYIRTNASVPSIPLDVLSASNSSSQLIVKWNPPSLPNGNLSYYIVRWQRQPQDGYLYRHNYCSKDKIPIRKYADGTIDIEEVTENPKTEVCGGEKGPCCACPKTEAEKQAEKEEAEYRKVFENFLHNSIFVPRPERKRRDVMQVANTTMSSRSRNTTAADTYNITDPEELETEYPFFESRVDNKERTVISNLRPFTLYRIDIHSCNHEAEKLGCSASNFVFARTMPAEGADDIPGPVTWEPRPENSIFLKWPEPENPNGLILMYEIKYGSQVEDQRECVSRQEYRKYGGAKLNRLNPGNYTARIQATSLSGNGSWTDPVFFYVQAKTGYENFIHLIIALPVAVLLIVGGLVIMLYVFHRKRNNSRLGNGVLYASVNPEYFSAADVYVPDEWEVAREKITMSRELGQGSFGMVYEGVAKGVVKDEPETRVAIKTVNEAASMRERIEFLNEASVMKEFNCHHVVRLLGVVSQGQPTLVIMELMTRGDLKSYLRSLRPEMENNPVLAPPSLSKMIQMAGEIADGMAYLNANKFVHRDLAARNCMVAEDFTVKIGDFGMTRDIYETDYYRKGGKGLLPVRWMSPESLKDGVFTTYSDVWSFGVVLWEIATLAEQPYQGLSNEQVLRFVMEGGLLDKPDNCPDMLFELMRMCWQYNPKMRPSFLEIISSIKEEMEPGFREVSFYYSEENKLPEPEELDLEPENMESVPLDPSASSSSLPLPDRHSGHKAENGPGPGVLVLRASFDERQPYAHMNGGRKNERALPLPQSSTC

MAPK [6] = conditions: HNSCC cells treated with dasatinib; Johnson et al. 2005; cited from earlier work
IL-8 = experiment: Cytokine profiling of cell media (25-plex bead kit), IL-8; type: cell-based, human; conditions: 100 nM dasatinib; serum-free and complete medium; 6 and 24 h
FAK = experiment: Western blot, FAK downstream of Src in cancer cell lines; type: cell-based, human
MAPK [7] = experiment: Western blot, MAPK activation in HNSCC cells; conditions: Tu167 cells treated with EGF
[8] = Tu167 cells, 100 nM dasatinib for the indicated times
[9] = all fifteen human cancer cell lines, 100 nM dasatinib, 0-24 h

For `Cc1cn(-c2cc(NC(=O)c3ccc(C)c(Nc4nccc(-c5cccnc5)n4)c3)cc(C(F)(F)F)c2)cn1` [AMN107], the pIC50 (wild-type BCR-ABL) is listed as […] and the “imatinib-resistant BCR-ABL mutants against which significantly active” value [1] is listed as 32/33.

In the case of insulin-like growth factor, the “STAT3 activation on stimulation” value (STAT3 [2]; stimulation of cells with insulin-like growth factor) was “did not lead to significant activation of STAT3”.

In the case of `Cc1ccc(-c2nn(C(C)(C)C)c3ncnc(N)c23)cc1` [PP1], the “STAT3 inhibition / re-activation” value (STAT3 [2]; Western blot) was “not inhibited at 24 hours” and the c-Src inhibition (c-Src) was “durable c-Src inhibition”.

For `CC(C)(C)c1nc2c3cc[nH]c(=O)c3c3cc(F)ccc3c2[nH]1` [pyridone 6], the “STAT3 inhibition on addition of JAK inhibitor to dasatinib” value (STAT3 [2]) was “sustained inhibition of STAT3”.

In the case of `Cc1nc(Nc2ncc(C(=O)Nc3c(C)cccc3Cl)s2)cc(N2CCN(CCO)CC2)n1` [dasatinib, N-(2-chloro-6-methylphenyl)-2-[[6-[4-(2-hydroxyethyl)-1-piperazinyl]-2-methyl-4-pyrimidinyl]amino]-5-thiazolecarboxamide], the “effect of SFK inhibition on STAT3 activation” value (STAT3 [3]) is given as “modest to absent”, the IL-6 production (IL-6) is given as “decreased” and the “effects in cancer cell lines” value [4] is given as “cytotoxicity, cell cycle arrest and apoptosis”. The “STAT3 activation (pSTAT3)” value (STAT3 [2]; 14 of 15 solid tumor cell lines (HNSCC, NSCLC, mesothelioma, squamous skin carcinoma), 100 nM dasatinib, 0-24 h, Western blot) was “intitally inhibited but levels of pSTAT3 (Y105) returned to or above baseline by 24 h; also recorded: initially inhibited but reactivated by 24 h”, the “STAT3 inhibition / re-activation” value (STAT3 [2]; Western blot) was “not inhibited at 24 hours” and the STAT3 inhibition (STAT3 [2]; Tu167 cells, 100 nM dasatinib for the indicated times, Western blot) was “not durably inhibited”. The “STAT3 activation in fresh cells by conditioned medium” value (STAT3 [2]; conditioned medium from Tu167 cells treated with dasatinib for 24 h transferred to fresh cells) was “did not observe any STAT3 activation”, the AKT inhibition (AKT; [8]) was “durable inhibition” and the AKT inhibition (AKT; [9]) was “rapidly and durably inhibited”. For the same compound, the STATS inhibition (STAT5; [8]) was “durable inhibition”, the STATS inhibition (STAT5; [9]) was “rapidly and durably inhibited” and the “increase of any of 25 cytokines / growth factors assayed” value [5] was “No cytokine or growth factor assayed was significantly increased”. The “production of IL-1beta, IL-12p40, IL-15, TNF-alpha, interferon-alpha, inducible protein-10, MIG, RANTES, IL-10” value [5] was “unaffected”, the IGF1R activation (IGF1R) was “nor did dasatinib affect IGF1R activation” and the MAPK activation (MAPK [6]) was “transiently activated”. The IL-8 production (IL-8) was “decreased”, the FAK inhibition (FAK; [8]) was “durable inhibition” and the FAK inhibition (FAK; [9]) was “rapidly and durably inhibited”.

For `C#Cc1cccc(Nc2ncnc3cc(OCCOC)c(OCCOC)cc23)c1` [erlotinib], the “effect of added inhibitor on STAT3 reactivation by dasatinib” value (STAT3 [2]) was “did not affect the STAT3 reactivation”.

With `COc1cccc(-c2cc(=O)c3ccccc3o2)c1N` [PD98059] the “effect of added inhibitor on STAT3 reactivation by dasatinib” value (STAT3 [2]) was “no effect on STAT3 reactivation”.

In the case of `COc1cc(Nc2c(C#N)cnc3cc(OCCCN4CCN(C)CC4)c(OC)cc23)c(Cl)cc1Cl` [SKI606], the “STAT3 inhibition / re-activation” value (STAT3 [2]; Western blot) was “not inhibited at 24 hours” and the c-Src inhibition (c-Src) was “durable c-Src inhibition”.

With `N#C/C(=C/c1ccc(O)c(O)c1)C(=O)NCc1ccccc1` [AG490] the “STAT3 inhibition on addition of JAK inhibitor to dasatinib” value (STAT3 [2]) was “sustained inhibition of STAT3”.

For “EGF: epidermal growth factor, used to stimulate cells (NSDSECPLSHDGYCLHDGVCMYIEALDKYACNCVVGYIGERCQYRDLKWWELR; UniProt P01133 971-1023, looked up)”, the “STAT3 activation on stimulation” value (STAT3 [2]; Tu167 cells treated with EGF) was “slight increase in STAT3 activation” and the “MAPK activation on stimulation” value (MAPK [7]) was “markedly activated”.
